For one experiment, the system named is gastric emptying. Conditions: in man; cited from earlier work.
A further experiment relates to pancreatic secretion. The conditions noted are these: in vivo; cited from earlier work.
The subject of experiment [1] is gastric emptying and small intestinal motility. Nature of the experiment: Gastric emptying and small intestinal motility in the rat. It counts as in vivo.
Experiment [2] concerns small bowel motility in humans with IBS. The experiment can be described thus: Small bowel manometry in fasted IBS patients during intravenous GLP-1 infusion. It counts as in vivo, human. Conditions: for Contraction frequency / Contraction amplitude / Contraction area / Motility index Ln (Sum (mm Hg*s)/min): 4 h, fasted IBS patients; for Contraction frequency: angle of Treitz; for Contraction frequency / Contraction amplitude / Contraction area / Motility index Ln (Sum (mm Hg*s)/min) / Adjusted MMC: mean ±SEM n=6; for Adjusted MMC: premature MMC at onset subtracted. The method, then:
Experiments were carried out in 12 subjects fulfilling the Rome-criteria for IBS. In the fasted subjects a small bowel manometry tube was passed through the nose and located in antroduodenal region under fluoroscopy. Then, small bowel manometry was recorded for 8 hours in the fasted state, and for an additional 40 min after a meal (320 kcal). During the first 4-hour period of the recording saline was administered intravenously. During the second 4-hour period GLP-1 was given intravenously either at a dose of 1.2 pmol/kg/min (72 pmol/kg/h) (n=6) or 2.5 pmol/kg/min (150 pmol/kg/h) (n=6) with the infusion continued over the 40-minute meal period. GLP-1 was administered as an intravenous infusion at a dose of 1.2 or 2.5 pmol/kg/min. The compound was diluted from a stock solution of GLP-1 (Polypeptide, Wolfenbüttel, Hannover, Germany) 100 nmol/ml prepared according to general guidelines with sterilization filtration and endotoxin test, and divided in 10 ml ampoules.
For each patient the solution for infusion was constituted according to body weight. The dose to be given was multiplied by body weight, resulting in an individual dosing, expressed as pmol/min. The calculated total dose (according to extrapolated 250 ml infusion time) was taken from the stock solution and diluted in 250 ml infusion volume of saline (Natriumklorid 9 mg/ml, Pharmacia & Upjohn, Stockholm, Sweden). The infusion was then given at a rate of 1 ml/min with a constant infusion pump (Volumetric infusion pump, model 960, Imed, Oxon, UK) over 4 hours (240 min).
As this premature MMC cycle was considered to be due to an immediate effect of GLP-1 during a build-up of a steady state concentration in the circulation, an adjusted MMC prevalence during GLP-1 infusion was calculated by subtracting the premature MMC at onset from the remaining MMC observed during infusion of GLP-1.
In detail, the following results were obtained from the motility recordings (reference point: angle of Treitz; values are mean ±SEM of n=6 in each group; statistical evaluation by the non-parametric Wilcoxon signed-rank test): […]

For another experiment, the system named is gastric acid secretion. Conditions: in man; cited from earlier work.
A further experiment relates to dyspepsia symptoms. Conditions: dysmotility-like and gastroesophageal reflux-like dyspepsia; cited from earlier work.

“Also recorded” adds a separate entry of the source.

In the case of glucagon-like peptide-1 [GLP-1], the “Slowing of gastric emptying” value with gastric emptying was 50%. For the same compound, in the experiment with pancreatic secretion, the “Inhibition of pancreatic secretion” value is “about 45%”. Further, the “Action on gastric emptying and small intestinal motility (in words)” value in experiment [1] was “profound inhibitory action”. Also, in experiment [2] (GLP-1 1.2 pmol/kg/min i.v.), the “Time after onset of infusion to start of an MMC in the duodenum” value is at most 14.2 ± 3.8 min, the Contraction frequency is reported as 1.7 ± 0.4 #/min, the Contraction amplitude is listed as 24.7 ± 1.6 mm Hg and the Contraction area is given as 33.4 ± 3.2 mm Hg*s. In experiment [2] (GLP-1 1.2 pmol/kg/min i.v.), the “Motility index Ln (Sum (mm Hg*s)/min)” value amounted to 4.7 ± 0.3 and the “Adjusted MMC” value was 0.0 ± 0.0 #/4 h. Further, in experiment [2] (GLP-1 2.5 pmol/kg/min i.v.), the “Time after onset of infusion to start of an MMC in the duodenum” value was at most 12.0 ± 2.7 min, the Contraction frequency was 0.9 ± 0.2 #/min, the Contraction amplitude amounted to 23.6 ± 2.5 mm Hg and the Contraction area was 30.5 ± 5.3 mm Hg*s. Also, in experiment [2] (GLP-1 2.5 pmol/kg/min i.v.), the “Motility index Ln (Sum (mm Hg*s)/min)” value is reported as 3.8 ± 0.8 and the “Adjusted MMC” value was 0.2 ± 0.2 #/4 h. Further, the “Effect on motor activity in the small bowel (overall result in words)” value in experiment [2] (IBS patients, fasted state) is on record as “able to reduce the motor activity; also recorded: dose-dependent reduction of motor activity”. Besides, the “Patients in whom a premature MMC was started in the duodenum” value in experiment [2] (in each group (1.2 and 2.5 pmol/kg/min)) is “four out of six”. The “Inhibition of gastric acid secretion” value in the experiment on gastric acid secretion was 43%.
On to `COc1cc(N)c(Cl)cc1C(=O)NC1CCN(CCCOc2ccc(F)cc2)CC1OC` (stereo not shown) [cisapride], for which, in the experiment with dyspepsia symptoms, the “Symptomatic relief, share of studied patients” value is on record as 60-90%.

These data come from patent US6348447B1, “Pharmaceutical composition for the treatment of functional dyspepsia and/or irritable bowel syndrome and new use of substances therein” (priority 1998, dated 2002).
